These results are taken from US10703764B2, “Benzopiperazine compositions as BET bromodomain inhibitors” (FORMA Therapeutics, Inc., priority 2013, dated 2020).

The target of one experiment is T1, BRD4 BD2 (Homo sapiens, UniProt O60885).
T1 construct: made in house
As to the kind of experiment: AlphaScreen binding assay, BRD4 Bromodomain 2. The essentials:
(§1)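 Compound dilution series were mixed with His-tagged BRD4 bromodomain and biotinylated tetra-acetylated H4 (1-21) peptide at pH 7.3 (BD1 and peptide at 50 nM, BD2 and peptide at 100 nM). Donor and acceptor beads were then added, and plates were equilibrated at least 1 h before reading. IC50 values were fitted with a four-parameter logistic model.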

For another experiment, the target named is T2, BRD4 BD1 (Homo sapiens, UniProt O60885).
T2 construct: made in house
Put plainly: AlphaScreen binding assay, BRD4 Bromodomain 1. The essentials: as §1

Some results are limits rather than exact numbers.

Turning to `CC(=O)N1c2ccc(-c3ccn4ccnc4n3)cc2N(C(=O)c2ccco2)C[C@@H]1C` [Example I-406], the IC50 on BRD4 BD2 is > 0.5 µM; at BRD4 BD1, > 10 µM.

Consider `CC(=O)N1c2ccccc2N(C(=O)c2csc(C)n2)C[C@@H]1C` [Example I-705], for which the half-inhibitory concentration (IC50) on BRD4 BD2 was > 0.5 µM; on BRD4 BD1 it was > 10 µM.

For the molecule `COC(=O)N1c2ccc(-c3ccc(S(=O)(=O)CCO)cc3)cc2N(C(=O)C2CC2)C[C@@H]1C` [Example I-462], the half-inhibitory concentration (IC50) is 0.05 to 0.5 µM at BRD4 BD2 and 1 to 10 µM at BRD4 BD1.

On to `CC(=O)N1c2ccccc2N(C(=O)c2cc(C)oc2C)C[C@@H]1C` [Example I-749], for which the results for the half-maximal inhibitory concentration (IC50) on BRD4 BD2 and on BRD4 BD1 were > 0.5 µM and > 10 µM, respectively.

In the case of `CC(=O)N1c2ccccc2N(S(=O)(=O)Cc2ccccc2)C[C@@H]1C` [Example I-954], the IC50 at BRD4 BD2 is > 0.5 µM; at BRD4 BD1, > 10 µM.

As to `C[C@H]1CN(C(=O)c2ccco2)c2cc(-c3ccc(S(C)(=O)=O)cc3)ccc2N1C(=O)C1CCC1` [Example I-374], the half-maximal inhibitory concentration (IC50) is > 0.5 µM on BRD4 BD2 and 1 to 10 µM at BRD4 BD1.

Take `CC(=O)N1c2ccc(-c3ccc(C#N)cn3)cc2N(C(=O)c2ccco2)C[C@@H]1C` [Example I-392]: the half-maximal inhibitory concentration (IC50) on BRD4 BD2 was 0.05 to 0.5 µM; at BRD4 BD1 it was 1 to 10 µM.

With `CNC(=O)Cn1cc(-c2ccc3c(c2)N(C(=O)C2CC2)C[C@H](C)N3C(C)=O)cn1` [Example I-132, (S)-2-(4-(1-acetyl-4-(cyclopropanecarbonyl)-2-methyl-1,2,3,4-tetrahydroquinoxalin-6-yl)-1H-pyrazol-1-yl)-N-methylacetamide], the 50% inhibitory concentration (IC50) lay in the range of 0.05 to 0.5 µM on BRD4 BD2 and 1 to 10 µM at BRD4 BD1.

As to `CC(C)OC(=O)N1C[C@H](C)N(C(=O)C2CC2)c2ccc(-c3cnn(CCN(C)C)c3)cc21` [Example I-646], the results for the IC50 on BRD4 BD2 and at BRD4 BD1 were > 0.5 µM and 1 to 10 µM, respectively.

As to `CC[C@H]1CN(C(=O)c2ccco2)c2cc(-c3ccc(S(C)(=O)=O)cc3)ccc2N1C(C)=O` [Example I-6, (S)-1-(2-ethyl-4-(furan-2-carbonyl)-6-(4-(methylsulfonyl)phenyl)-3,4-dihydroquinoxalin-1(2H)-yl)ethan-1-one], the half-maximal inhibitory concentration (IC50) at BRD4 BD2 lay in the range of 0.05 to 0.5 µM; on BRD4 BD1, 1 to 10 µM.

As to `CC(=O)N1c2ccc(-c3ccc(S(C)(=O)=O)cc3)cc2N(C(=O)c2ncoc2C)C[C@@H]1C` [Example I-884], the half-maximal inhibitory concentration (IC50) on BRD4 BD2 was > 0.5 µM; at BRD4 BD1 it was > 10 µM.

Consider `CC(=O)N1c2ccccc2N(C(=O)c2cnc(C)cn2)C[C@@H]1C` [Example I-721], for which the IC50 on BRD4 BD2 is > 0.5 µM; on BRD4 BD1, > 10 µM.

As for `CC(=O)N1c2ccc(-c3ccc(S(C)(=O)=O)cc3)cc2N(C(=O)Oc2ccc(F)cc2F)C[C@@H]1C` [Example I-1010], the IC50 was 0.05 to 0.5 µM at BRD4 BD2 and 1 to 10 µM on BRD4 BD1.

On to `CC(=O)N1c2ccc(-c3ccc4cn(C)nc4c3)cc2N(C(=O)c2ccco2)C[C@@H]1C` [Example I-840], for which the IC50 at BRD4 BD2 lay within 0.05 to 0.5 µM; on BRD4 BD1, 1 to 10 µM.

Regarding `CC(=O)N1c2ccccc2N(C(=O)c2ccc3ccccc3c2)C[C@@H]1C` [Example I-716], the half-inhibitory concentration (IC50) on BRD4 BD2 was > 0.5 µM; on BRD4 BD1, > 10 µM.

As to `C[C@H]1CN(C(=O)C2CC2)c2cc(-c3ccc(S(=O)(=O)CCO)cc3)ccc2N1C(=O)C1CC1` [Example I-450], the IC50 at BRD4 BD2 lay in the range of 0.05 to 0.5 µM; on BRD4 BD1 it was 1 to 10 µM.

With `CC(=O)N1c2ccccc2N(Cc2cc(C)ccc2C)C[C@@H]1C` [Example I-903], the half-inhibitory concentration (IC50) at BRD4 BD2 was > 0.5 µM; at BRD4 BD1, > 10 µM.

As for `CC(=O)N1c2ccc(-c3ccc4nnc(C)n4c3)cc2N(C(=O)c2ccco2)C[C@@H]1C` [Example I-393], the IC50 on BRD4 BD2 lay within 0.05 to 0.5 µM; on BRD4 BD1 it was 1 to 10 µM.

As to `CC(=O)N1c2ccc(-c3cnn(C4COC4)c3)cc2N(C(=O)OCC(C)(F)F)C[C@@H]1C` [Example I-68, (S)-2,2-difluoropropyl 4-acetyl-3-methyl-7-(1-(oxetan-3-yl)-1H-pyrazol-4-yl)-3,4-dihydroquinoxaline-1(2H)-carboxylate], the IC50 was 0.05 to 0.5 µM on BRD4 BD2 and 0.1 to 1 µM on BRD4 BD1.

In the case of `CC(=O)N1c2ccc(-c3cnn(CC(C)(C)O)c3)cc2N(C(=O)Oc2ccccn2)C[C@@H]1C` [Example I-1320], the IC50 at BRD4 BD2 was 0.05 to 0.5 µM; on BRD4 BD1 it was 1 to 10 µM.

On to `CC(=O)N1c2ccc(-c3ccc(S(C)(=O)=O)cc3)cc2N(C(=O)NCc2ccc(C)cc2)C[C@@H]1C` [Example I-976], for which the 50% inhibitory concentration (IC50) at BRD4 BD2 is > 0.5 µM; at BRD4 BD1, > 10 µM.

For `CC(=O)N1c2ccc(-c3cnn(C4COC4)c3)cc2N(C(=O)C(F)F)C[C@@H]1C` [Example I-106, (S)-1-(4-acetyl-3-methyl-7-(1-(oxetan-3-yl)-1H-pyrazol-4-yl)-3,4-dihydroquinoxalin-1(2H)-yl)-2,2-difluoroethanone], the concentration for half-maximal inhibition (IC50) on BRD4 BD2 is 0.05 to 0.5 µM; at BRD4 BD1 it was > 10 µM.

For `CC(=O)N1c2ccc(-c3ncc(N)s3)cc2N(C(=O)c2ccco2)C[C@@H]1C` [Example I-431], the IC50 was > 0.5 µM at BRD4 BD2 and > 10 µM at BRD4 BD1.

Take `COC(=O)N1c2ccc(-c3cnn(CCC#N)c3)cc2N(C(=O)Oc2cccnc2)C[C@@H]1C` [Example I-1289]: the concentration for half-maximal inhibition (IC50) on BRD4 BD2 fell in the range of 0.05 to 0.5 µM; at BRD4 BD1, 1 to 10 µM.

Regarding `COC(=O)N1c2ccc(-c3cnn(CC4CCC4)c3)cc2N(C(=O)OC(C)C)C[C@@H]1C` [Example I-635], the IC50 on BRD4 BD2 was > 0.5 µM; on BRD4 BD1, 1 to 10 µM.

As to `CC(=O)N1c2ccc(-c3cnc4ccccn34)cc2N(C(=O)c2ccco2)C[C@@H]1C` [Example I-391], the IC50 lay within 0.05 to 0.5 µM on BRD4 BD2 and 1 to 10 µM on BRD4 BD1.

For the molecule `CC(=O)N1c2ccc(-c3cnc(N)nc3)cc2N(C(=O)c2ccco2)C[C@@H]1C` [Example I-296], the IC50 is 0.05 to 0.5 µM on BRD4 BD2 and 1 to 10 µM on BRD4 BD1.

Regarding `CC(=O)N1c2ccccc2N(C(=O)COc2ccc3ccccc3c2)C[C@@H]1C` [Example I-734], the IC50 at BRD4 BD2 is > 0.5 µM; at BRD4 BD1 it was > 10 µM.

Turning to `COC(=O)N1C[C@H](C)N(C(C)=O)c2ccc(-c3ccc(S(C)(=O)=O)cc3)cc21` [Example I-235], the half-maximal inhibitory concentration (IC50) on BRD4 BD2 was in the range of 0.05 to 0.5 µM; at BRD4 BD1 it was 1 to 10 µM.

For `CC(=O)N1c2ccccc2N(S(=O)(=O)c2ccccc2C)C[C@@H]1C` [Example I-941], the half-inhibitory concentration (IC50) is > 0.5 µM on BRD4 BD2 and > 10 µM on BRD4 BD1.

In the case of `CC(=O)N1c2ccccc2N(C(=O)c2ccc(-c3ccccc3)cc2)C[C@@H]1C` [Example I-703], the half-inhibitory concentration (IC50) was > 0.5 µM at BRD4 BD2 and > 10 µM on BRD4 BD1.

As to `CC(=O)N1c2ccccc2N(Cc2ccc(N(C)C)cc2)C[C@@H]1C` [Example I-891], the 50% inhibitory concentration (IC50) at BRD4 BD2 is > 0.5 µM; at BRD4 BD1, > 10 µM.

In the case of `COCC(=O)N1C[C@H](C)N(C(C)=O)c2ccccc21` [Example I-738], the concentration for half-maximal inhibition (IC50) at BRD4 BD2 was > 0.5 µM; at BRD4 BD1 it was > 10 µM.

Turning to `CC(=O)N1c2ccccc2N(C(=O)CCc2ccccc2)C[C@@H]1C` [Example I-696], the IC50 is > 0.5 µM at BRD4 BD2 and > 10 µM at BRD4 BD1.

For the molecule `CC(=O)N1c2ccc(-c3cncc(F)c3)cc2N(C(=O)c2ccco2)C[C@@H]1C` [Example I-830], the IC50 lay within 0.05 to 0.5 µM at BRD4 BD2 and 1 to 10 µM at BRD4 BD1.

Turning to `CC(=O)N1c2ccccc2N(S(=O)(=O)c2ccc(C#N)cc2)C[C@@H]1C` [Example I-938], the IC50 at BRD4 BD2 was > 0.5 µM; at BRD4 BD1 it was > 10 µM.
